Test results from patent US10611751B2, “Dopamine D1 receptor positive allosteric modulators” (Eli Lilly and Company, priority 2018, dated 2020).

Tests used:
human D1 receptor = human D1 receptor (Homo sapiens (Human), UniProt P21728); assay: Human D1 Receptor PAM Assay (cAMP HTRF, potentiator mode with EC20 dopamine); assay type: cell-based; details: for EC50: HEK293 cells expressing human D1 receptor, 12 nM dopamine (EC20), cAMP, read-out: Abs EC50; for Emax: fitted top of curve, 0% = EC20 dopamine, 100% = 5 μM dopamine, read-out: % Top (% Potentiation)
human D1 receptor, sequence (P21728 whole entry): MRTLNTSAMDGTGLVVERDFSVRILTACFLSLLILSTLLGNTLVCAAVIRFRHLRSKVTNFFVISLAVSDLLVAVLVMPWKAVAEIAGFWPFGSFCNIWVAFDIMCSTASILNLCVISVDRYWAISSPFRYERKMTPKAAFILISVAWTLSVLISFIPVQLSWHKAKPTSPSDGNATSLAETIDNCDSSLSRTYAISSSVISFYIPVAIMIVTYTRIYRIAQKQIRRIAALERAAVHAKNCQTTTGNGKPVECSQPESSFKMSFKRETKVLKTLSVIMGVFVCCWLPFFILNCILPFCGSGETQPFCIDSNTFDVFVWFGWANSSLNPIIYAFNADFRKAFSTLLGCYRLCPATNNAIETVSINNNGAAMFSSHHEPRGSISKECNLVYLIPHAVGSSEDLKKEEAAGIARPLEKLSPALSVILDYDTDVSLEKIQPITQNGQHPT
Text: The PAM activity of the compounds of the present invention may be measured essentially as described in Svensson et al., An Allosteric Potentiator of the Dopamine D1 Receptor Increases Locomotor Activity in Human D1 Knock-in Mices without Casusing Stereotypy or Tachyphylaxis. J. Pharmacol. Exp. Ther. (2017) 360:117-128.
More specifically, HEK293 cells that stably express the human D1 receptor (Accession number NM_000794) are generated by gene transduction using the pBABE-bleo retroviral vector and selected with Zeocin™ (InvivoGen). At approximately 80% confluency, the cells are harvested using TrypLE™ Express (Gibco), suspended in FBS plus 8% DMSO, and stored in liquid nitrogen. On the day of the assay, cells are thawed and resuspended in STIM buffer (Hanks Balanced Salt Solution supplemented with 0.1% BSA, 20 mM HEPES, 500 μM IBMX, and 100 μM ascorbic acid).
Test compound is serially diluted (1:2) with DMSO into assay plates (ProxiPlate-384 Plus, PerkinElmer) using acoustic dispensing (Labcyte) to provide 20 concentrations for full response curves. […] Plates are incubated at room temperature for a total reaction time of 60 min.
cAMP production is quantified using HTRF® detection (Cisbio) according to the manufacturer's instructions. Generally, lysis buffer containing anti-cAMP cryptate (5 μL) and D2-conjugate (from HTRF® kit) (5 μL) is added to the wells, plates are incubated for an additional 60-90 min, and the time-resolved fluorescence is detected using an EnVision™ plate reader (PerkinElmer). Fluorescence data is converted to cAMP concentrations using a cAMP standard curve and analyzing using a 4-parameter non-linear logistic equation (Genedata Screener, version 13.0.5-standard). For potentiator mode concentration-response curves, results are expressed as percent of the window between a response at EC20 concentration of dopamine alone (normalized to 0%) and the maximum response to dopamine (defined by response to 5 μM dopamine, final concentration, normalized as 100%).
Absolute EC50 values are calculated based on the maximum and minimum responses of the control agonist (dopamine). The % Potentiation (% Top) is determined from the fitted top of the concentration response curve.

normal rats = assay: In vivo tolerability in normal rats; details: broad dose range
Text: Compounds of the invention, for instance Example 1, show an advantageous combination of pharmacological properties, such as potentiation of human D1 receptor signaling in response to dopamine, high oral in vivo availabilty, in vivo efficacy in locomotor activation of animals that are habituated to the environment, and a favorable toxicity profile in preclinical testing. […].

Compound | EC50 (human D1 receptor) | Emax (human D1 receptor) | Tolerability / toxicity in vivo (in words) (normal rats)
C[C@H]1c2cccc(-c3cn[nH]c3)c2C[C@H](CO)N1C(=O)Cc1c(Cl)cccc1Cl [Example 8, 2-(2,6-dichlorophenyl)-1-((1S,3R)-3-(hydroxymethyl)-1-methyl-5-(1H-pyrazol-4-yl)-3,4-dihydroisoquinolin-2(1H)-yl)ethan-1-one] | 13.4 nM | 75.9% | 
C[C@H]1c2cccc(-c3cnn(C)c3)c2C[C@H](CO)N1C(=O)Cc1c(Cl)cccc1Cl [Example 1, 2-(2,6-dichlorophenyl)-1-((1S,3R)-3-(hydroxymethyl)-1-methyl-5-(1-methyl-1H-pyrazol-4-yl)-3,4-dihydroisoquinolin-2(1H)-yl)ethan-1-one] | 16.4 ± 3.18 nM | 91.4% | generally well tolerated
